{"source": "paper PMC2600610", "about": "“Ir-LBP, an Ixodes ricinus Tick Salivary LTB4-Binding Lipocalin, Interferes with Host Neutrophil Function” (PLoS ONE, 2008)", "key": {"[1]": {"target": "T1, Ir-LBP (Ixodes ricinus, UniProt B7ZDG7)", "T1 sequence (B7ZDG7 20-200 limits assumed)": "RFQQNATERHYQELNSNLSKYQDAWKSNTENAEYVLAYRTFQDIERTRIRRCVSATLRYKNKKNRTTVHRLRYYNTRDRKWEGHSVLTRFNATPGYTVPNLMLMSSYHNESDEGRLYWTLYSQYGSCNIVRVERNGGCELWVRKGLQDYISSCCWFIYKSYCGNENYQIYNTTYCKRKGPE", "assay": "Competitive binding: inhibition of 3H-LTB4 binding to Ir-LBP by eicosanoids", "details": "2 h; for decrease of the binding of 1 nM 3H-LTB4 to Ir-LBP: competitor at 10 µM", "experimental": "The specificity of this binding was then evaluated by incubating Ir-LBP with increasing concentrations of different eicosanoids (LTB4, LTD4, LTC4, LTE4, 12(R)-hydroxyeicosatetraenoic acid (HETE), 15(S)-hydroxyperoxyeicosatetraenoic acid (HpETE), LTA4 methyl ester and 5 (S), 6 (R)-Lipoxin A4) in the presence of a fixed concentration of ^3H-LTB4 (Figure 1B). […] On the other hand, only at a very high concentration of 10 µM were LTD4, LTE4 and 12(R)-HETE able to decrease the binding of 1 nM of ^3H-LTB4 to Ir-LBP by approximately 30%. […] Furthermore, this interaction is reversible. The addition of an excess of cold LTB4 (10 µM) for 2 h displaces the binding between Ir-LBP and 1 nM of ^3H-LTB4 (data not shown). […] This binding may only be displaced by very high concentrations (10 µM versus nM) of eicosanoid analogs.\n(§1) The dissociation constant was measured in PBS (pH 7.4) using purified Ir-LBP and an increasing amount of ^3H-LTB4. Non-specific binding was determined by measuring bound radioactivity in the absence of Ir-LBP. Protein precipitation with polyethylene glycol 8000 was used to separate bound from free histamine. Protein-bound radioactivity was determined with a Wallac 1409 scintillation counter. Saturation experiments were analyzed by non-linear regression using the curve fitting program GraphPad Prism® (GraphPad software, San Diego, CA, U.S.A.), B = (Bmax [F])/KD+[F]), where B is the amount of bound ligand at equilibrium, Bmax is the maximum number of binding sites, [F] is the concentration of free ligand and KD is the ligand dissociation constant. Competitive binding assays were performed using purified Ir-LBP with 1 nM of ^3H-LTB4 and an increasing amount of unlabelled competitor for 2 h."}, "[2]": {"test_system": "neutrophils", "parameters": "method as in PMID 12770944, PMID 10588632", "details": "BLT1 antagonists; cited from earlier work"}, "[3]": {"test_system": "T2, R73A", "T2 construct": "pCDNA3.1/V5-His-TOPO, expressed in 293T cells", "assay": "Saturation binding of ^3H-LTB4 (PBS pH 7.4, PEG 8000 precipitation) to wild-type and mutant Ir-LBP expressed in 293T cells.", "details": "SD", "from_the_text": "(§2) In order to determine which amino acids of Ir-LBP are involved in the binding to LTB4, we produced mutants designed on the basis of the dynamic model established in silico. […] For the interaction with the second hydroxyl group, the residue selected to be mutated is Arg 73. The choice was made on this residue because Glu 188 is conserved for all LIRs and should thus not be as specific as Arg 73; furthermore, Arg 53 is bridged to Arg 73 by an aspartic residue from the loop corresponding to the Ω loop in Ra-HBP2. The two hydroxyl groups and the two Arg bridged by Asp Ω could form an interacting network, further stabilizing the binding with LTB4. Two single mutants were therefore produced by replacing Arg 53 with threonine (R53T) and Arg 73 with alanine (R73A). A double mutant (R53T/R73A) was also produced by combining the 2 substitutions of the single mutants. A null mutant was also constructed by replacing serine 124 with threonine (S124T). […] Therefore, the affinity of this mutant for LTB4 should not be affected. These mutants and “wild type” Ir-LBP were expressed in 293T cells, and analyzed to determine their dissociation constant for LTB4.\n(§3) Site-directed mutagenesis of Ir-LBP in pCDNA3.1/V5-His-TOPO\n(§4) Subconfluent 293T cells in 35-mm diameter wells (Orange Scientific) were transfected with […] plasmid DNA and […] Fugene 6 (Roche Biochemicals) in Dulbecco's modified Eagle's medium (DMEM, Invitrogen) without FCS. The medium was harvested after 72 h. Pooled supernatants were cleared by centrifugation, concentrated 10-fold by filtration on 10000 NMWL membranes (Millipore), ultracentrifuged at 140,000 g before use, and finally stored at −80°C. Concentrated culture supernatants were analyzed by western blotting on a Hybond ECL membrane (GE healthcare) using an anti-V5 primary antibody (Invitrogen), an IgHRP conjugate as secondary antibody and the ECL detection reagent (GE healthcare) according to the manufacturer's instructions. The coding regions of Ir-LBP were amplified by PCR (94°C for 30 s, 56°C for 30 s, 72°C for 1 min.; 30 cycles) using ExTaq DNA Polymerase (Taqara). […]\nas §1, with “Protein precipitation with polyethylene glycol 8000 was used to separate bound from free histamine.” left out, “Competitive binding assays were performed using purified Ir-LBP with 1 nM of ^3H-LTB4 and an increasing amount of unlabelled competitor for 2 h.” left out"}, "[4]": {"test_system": "T3, S124T", "T3 construct": "pCDNA3.1/V5-His-TOPO, expressed in 293T cells", "assay": "Saturation binding of ^3H-LTB4 (PBS pH 7.4, PEG 8000 precipitation) to wild-type and mutant Ir-LBP expressed in 293T cells.", "details": "SD", "from_the_text": "as §2, §3, §4\nas §1, with “Protein precipitation with polyethylene glycol 8000 was used to separate bound from free histamine.” left out, “Competitive binding assays were performed using purified Ir-LBP with 1 nM of ^3H-LTB4 and an increasing amount of unlabelled competitor for 2 h.” left out"}, "[5]": {"test_system": "T4, R53T", "T4 construct": "pCDNA3.1/V5-His-TOPO, expressed in 293T cells", "assay": "Saturation binding of ^3H-LTB4 (PBS pH 7.4, PEG 8000 precipitation) to wild-type and mutant Ir-LBP expressed in 293T cells.", "details": "SD", "from_the_text": "as §2, §3, §4\nas §1, with “Protein precipitation with polyethylene glycol 8000 was used to separate bound from free histamine.” left out, “Competitive binding assays were performed using purified Ir-LBP with 1 nM of ^3H-LTB4 and an increasing amount of unlabelled competitor for 2 h.” left out"}, "[6]": {"test_system": "T5, R53T/R73A", "T5 construct": "pCDNA3.1/V5-His-TOPO, expressed in 293T cells", "assay": "Saturation binding of ^3H-LTB4 (PBS pH 7.4, PEG 8000 precipitation) to wild-type and mutant Ir-LBP expressed in 293T cells.", "details": "SD", "from_the_text": "as §2, §3, §4\nas §1, with “Protein precipitation with polyethylene glycol 8000 was used to separate bound from free histamine.” left out, “Competitive binding assays were performed using purified Ir-LBP with 1 nM of ^3H-LTB4 and an increasing amount of unlabelled competitor for 2 h.” left out"}, "[7]": {"target": "T1, Ir-LBP", "assay": "Saturation curve and Scatchard analysis for LTB4 binding to Ir-LBP (Figure 1A), ligand as substance", "details": "saturation curve, 3H-LTB4"}, "[8]": {"test_system": "Human neutrophils", "assay": "Neutrophil apoptosis assay (Annexin-V-FITC/PI, flow cytometry)", "type": "cell-based", "details": "LTB4 10^-7 M, 24 h of culture", "experimental": "Human blood neutrophils were obtained from buffy coats (Transfusion Center, Liege, Belgium). Neutrophils were separated from mononuclear cells by density centrifugation (Histopaque; Sigma-Aldrich). Contaminating erythrocytes were removed from the neutrophil fraction by hypotonic lysis. Neutrophil purity, determined by counting cytospin preparations stained with Diff-Quick (Dade Behring), was always >95%. Neutrophils were cultured at a density of 2×10^6 cells/ml in RPMI-1640 supplemented with 1% glutamine, 10% FCS, 50 µg/ml streptomycin, and 50 IU/ml penicillin (all from Gibco BRL). Neutrophils were cultured in the absence or presence of 10^−7 M LTB4 (Sigma-Aldrich) and/or 0.2–2 µg/ml Ir-LBP.\nApoptosis was assessed by staining with Annexin-V-FITC and propidium iodide (PI) using the Annexin-V-FLUOS staining kit (Roche), following the manufacturer's recommendations. Flow cytometry analyses were performed with a FACSAria™ (BD Biosciences)."}, "[9]": {"target": "BLT2", "parameters": "method as in PMID 10934230", "details": "read-out: Kd of BLT2 for LTB4; cited from earlier work"}, "[10]": {"target": "BLT1", "parameters": "method as in PMID 6097945, PMID 6323613, PMID 2823316", "details": "read-out: Kd of BLT1 for LTB4; cited from earlier work"}, "[11]": {"test_system": "neutrophils", "parameters": "method as in PMID 9261334", "details": "BLT1 and BLT2 antagonist; cited from earlier work"}}, "note": "pIC50, pKd: −log10 of the molar value.", "data": [{"smiles": "CCCCC/C=C\\C[C@@H](O)/C=C/C=C\\C/C=C\\CCCC(=O)O", "note": "[12(R)-HETE, 12(R)-hydroxyeicosatetraenoic acid]", "values": [{"measurement": "decrease of the binding of 1 nM 3H-LTB4 to Ir-LBP", "setting": "[1]", "value": "approximately 30%"}]}, {"smiles": "CCCCC/C=C\\C\\C=C/C=C/C=C/[C@@H](SC[C@H](N)C(=O)NCC(=O)O)[C@@H](O)CCCC(=O)O", "note": "[LTD4]", "values": [{"measurement": "decrease of the binding of 1 nM 3H-LTB4 to Ir-LBP", "setting": "[1]", "value": "approximately 30%"}]}, {"smiles": "CCCCC[C@@H](/C=C/C=C\\C/C=C\\C/C=C\\CCCC(=O)O)OO", "note": "[15(S)-HpETE, 15(S)-hydroxyperoxyeicosatetraenoic acid]", "values": [{"measurement": "decrease of the binding of 1 nM 3H-LTB4 to Ir-LBP", "setting": "[1]", "value": "unable to compete"}]}, {"smiles": "CCCCC/C=C\\C\\C=C/C=C/C=C/[C@@H](SC[C@H](N)C(=O)O)[C@@H](O)CCCC(=O)O", "note": "[LTE4]", "values": [{"measurement": "decrease of the binding of 1 nM 3H-LTB4 to Ir-LBP", "setting": "[1]", "value": "approximately 30%"}]}, {"smiles": "CCCCC/C=C\\C\\C=C/C=C/C=C/[C@@H]1O[C@H]1CCCC(=O)OC", "note": "[LTA4 methyl ester]", "values": [{"measurement": "decrease of the binding of 1 nM 3H-LTB4 to Ir-LBP", "setting": "[1]", "value": "unable to compete"}]}, {"smiles": "COc1ccc(CCCCCCCCOc2ccc(C[S+]([O-])c3cccc(N)c3)nc2/C=C/C(=O)[O-])cc1.[Li+]", "note": "(stereo not shown) [SB201146]", "values": [{"measurement": "inhibition of the apoptosis delay induced by LTB4", "setting": "[2]", "value": "capable of inhibiting"}]}, {"smiles": "O=C(O)C1(c2ccc3c(c2)OC[C@H](Cc2ccc(-c4ccccc4)cc2)[C@H]3O)CCCC1", "note": "[CP-105696]", "values": [{"measurement": "inhibition of the apoptosis delay induced by LTB4", "setting": "[2]", "value": "capable of inhibiting"}]}, {"smiles": "CCCCC/C=C\\C\\C=C/C=C/C=C/[C@@H](SC[C@H](NC(=O)CC[C@H](N)C(=O)O)C(=O)NCC(=O)O)[C@@H](O)CCCC(=O)O", "note": "[LTC4]", "values": [{"measurement": "decrease of the binding of 1 nM 3H-LTB4 to Ir-LBP", "setting": "[1]", "value": "unable to compete"}]}, {"smiles": "CCCCC/C=C\\C[C@@H](O)/C=C/C=C/C=C\\[C@@H](O)CCCC(=O)O", "note": "[^3H-LTB4, tritiated leukotriene B4]", "values": [{"measurement": "pKd", "setting": "[3]", "value": 9.06}, {"measurement": "pKd", "setting": "[4]", "value": 9.35}, {"measurement": "pKd", "setting": "[5]", "value": 9.37}, {"measurement": "pKd", "setting": "[6]", "value": 8.37}]}, {"smiles": "CCCCC/C=C\\C[C@@H](O)/C=C/C=C/C=C\\[C@@H](O)CCCC(=O)O", "note": "[LTB4, Leukotriene B4]", "values": [{"measurement": "pKd", "setting": "[7]", "value": 9.23}, {"measurement": "pIC50", "setting": "[1]; 1 nM 3H-LTB4, unlabelled competitor", "value": 8.24}, {"measurement": "apoptosis levels versus untreated controls", "setting": "[8]", "value": "significantly lower"}, {"measurement": "pKd", "setting": "[9]", "value": "~7.64"}, {"measurement": "pKd", "setting": "[10]", "value": "~9.00"}]}, {"smiles": "COc1ccc(/C=C/CCCCOc2cccc(OCCCCC(=O)O)c2CCC(=O)O)cc1", "note": "[ONO-4057]", "values": [{"measurement": "inhibition of endothelial transmigration of neutrophils", "setting": "[11]", "value": "totally inhibits"}]}, {"smiles": "CCCCC[C@H](O)/C=C/C=C\\C=C\\C=C\\[C@@H](O)[C@@H](O)CCCC(=O)O", "note": "[5(S), 6(R)-Lipoxin A4, 5 (S), 6 (R)-Lipoxin A4]", "values": [{"measurement": "decrease of the binding of 1 nM 3H-LTB4 to Ir-LBP", "setting": "[1]", "value": "unable to compete"}]}]}
